Calls of active or inactive are those of the source. No cut-off for these calls is given here.
Tests used:
[1] = target: T1, Muscarinic acetylcholine receptor M1 (Rattus norvegicus) (UniProt P08482); test: Agonist activity at rat muscarinic M1 receptor expressed in CHO cells at 10 uM; format: functional, cell-based
T1 sequence (whole entry): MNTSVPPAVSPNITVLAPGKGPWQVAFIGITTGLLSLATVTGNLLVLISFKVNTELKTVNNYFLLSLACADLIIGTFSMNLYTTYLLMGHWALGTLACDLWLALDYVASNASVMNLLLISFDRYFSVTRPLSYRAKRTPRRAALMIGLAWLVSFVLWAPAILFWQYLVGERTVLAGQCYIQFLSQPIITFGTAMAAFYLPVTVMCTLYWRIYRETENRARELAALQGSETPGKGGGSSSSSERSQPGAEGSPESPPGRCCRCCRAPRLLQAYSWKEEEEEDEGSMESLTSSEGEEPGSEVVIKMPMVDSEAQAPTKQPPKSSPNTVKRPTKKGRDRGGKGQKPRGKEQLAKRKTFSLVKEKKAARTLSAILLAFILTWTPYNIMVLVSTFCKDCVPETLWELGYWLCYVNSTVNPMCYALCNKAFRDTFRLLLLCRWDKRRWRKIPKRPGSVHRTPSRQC

[2] = Potentiation of NMDA receptor-induced current in hippocampal CA1 pyramidal cells at 30 uM; format: tissue-based; details: Hippocampus
Plasma [3] = test: Fraction unbound in human plasma; format: ADME, cell-free
Plasma [4] = test: Fraction unbound in rat plasma; format: ADME, cell-free
Cytochrome P450 2C9 = Cytochrome P450 2C9 (Homo sapiens, UniProt P11712); test: Inhibition of CYP2C9; format: ADME
Cytochrome P450 1A2 = target: T2, Cytochrome P450 1A2 (Homo sapiens, UniProt P05177); test: Inhibition of CYP1A2; format: ADME
T2 sequence (P05177 whole entry): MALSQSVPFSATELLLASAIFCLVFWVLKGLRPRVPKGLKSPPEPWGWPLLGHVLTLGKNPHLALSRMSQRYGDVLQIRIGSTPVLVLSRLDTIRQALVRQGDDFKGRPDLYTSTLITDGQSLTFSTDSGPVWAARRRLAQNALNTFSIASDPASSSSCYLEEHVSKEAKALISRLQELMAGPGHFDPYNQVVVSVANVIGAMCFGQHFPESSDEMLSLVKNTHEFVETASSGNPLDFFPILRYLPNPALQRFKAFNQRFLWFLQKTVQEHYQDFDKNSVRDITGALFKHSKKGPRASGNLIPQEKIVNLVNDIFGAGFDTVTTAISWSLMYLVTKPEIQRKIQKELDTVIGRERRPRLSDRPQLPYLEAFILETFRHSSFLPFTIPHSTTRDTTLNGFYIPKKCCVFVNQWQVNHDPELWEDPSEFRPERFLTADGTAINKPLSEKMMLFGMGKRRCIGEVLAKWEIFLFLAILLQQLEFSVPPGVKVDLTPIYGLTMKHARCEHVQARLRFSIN

Cytochrome P450 2D6 = Cytochrome P450 2D6 (Homo sapiens, UniProt P10635); test: Inhibition of CYP2D6; format: ADME
[5] = Volume of distribution at steady state in rat 1 mg/kg, iv and 10 mg/kg, po; format: ADME, organism-based; details: in vivo, read-out: Vdss
Rattus norvegicus = test: Oral bioavailability in rat 10 mg/kg; format: ADME, organism-based; details: in vivo
[6] = AUC in rat at 1 mg/kg, iv; format: ADME, organism-based; design: dose 1 mg/kg, route intravenous; details: plasma
[7] = Drug uptake in Sprague-Dawley rat brain at 10 mg/kg, po after 90 mins; format: ADME, organism-based; design: dose 10 mg/kg, route oral; details: read-out: Drug uptake
[8] = Ratio of AUC in brain to AUC in blood in Sprague-Dawley rat at 10 mg/kg, po after 90 mins; format: ADME, organism-based; design: dose 10 mg/kg, route oral; details: read-out: BPR

Cytochrome P450 2C9, sequence (P11712 whole entry): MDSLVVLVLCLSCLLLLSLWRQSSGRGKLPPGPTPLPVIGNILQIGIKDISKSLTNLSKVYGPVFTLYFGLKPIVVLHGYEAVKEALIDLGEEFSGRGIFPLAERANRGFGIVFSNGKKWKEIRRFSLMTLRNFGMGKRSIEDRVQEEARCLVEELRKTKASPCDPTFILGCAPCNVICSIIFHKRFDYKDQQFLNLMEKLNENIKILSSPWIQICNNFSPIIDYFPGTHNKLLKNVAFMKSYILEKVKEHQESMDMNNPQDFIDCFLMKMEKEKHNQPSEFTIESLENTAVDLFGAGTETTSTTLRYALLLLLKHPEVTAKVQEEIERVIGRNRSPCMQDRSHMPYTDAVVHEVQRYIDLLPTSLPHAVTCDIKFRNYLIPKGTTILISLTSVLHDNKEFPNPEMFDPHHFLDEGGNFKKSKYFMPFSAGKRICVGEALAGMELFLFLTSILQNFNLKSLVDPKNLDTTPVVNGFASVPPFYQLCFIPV
Cytochrome P450 2D6, sequence (P10635 whole entry): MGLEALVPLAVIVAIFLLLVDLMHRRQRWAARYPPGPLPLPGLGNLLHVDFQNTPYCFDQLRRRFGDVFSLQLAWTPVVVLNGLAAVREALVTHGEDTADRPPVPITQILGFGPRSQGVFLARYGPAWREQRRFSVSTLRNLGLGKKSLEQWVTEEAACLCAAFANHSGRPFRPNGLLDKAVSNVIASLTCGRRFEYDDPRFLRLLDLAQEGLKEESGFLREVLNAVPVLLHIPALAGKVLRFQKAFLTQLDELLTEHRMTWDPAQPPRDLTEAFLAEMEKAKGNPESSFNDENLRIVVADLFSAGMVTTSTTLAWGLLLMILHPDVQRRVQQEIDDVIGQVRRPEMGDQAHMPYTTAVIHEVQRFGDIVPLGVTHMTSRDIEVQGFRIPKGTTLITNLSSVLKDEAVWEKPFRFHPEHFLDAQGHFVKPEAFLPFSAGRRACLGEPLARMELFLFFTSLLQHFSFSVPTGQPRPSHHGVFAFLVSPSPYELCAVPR

SMILES: CCOC(=O)N1CCC(N2CCC[C@@H](NC(=O)c3ccccc3C)C2)CC1
- activation [1]: Active
- Activity [2]: Active
- Fu (Plasma [3]): 5.8%
- Fu (Plasma [4]): 14.9%
- IC50 (Cytochrome P450 2C9): > 25 µM
- IC50 (Cytochrome P450 1A2): > 25 µM
- IC50 (Cytochrome P450 2D6): > 25 µM
- Vd [5]: 0.98 L/kg
- F (Rattus norvegicus): 37%
- AUC [6]: 1100 ng·h/mL
- concentration at 1.5 h [7]: 1890 nM
- Kp at 1.5 h [8]: 1.35
